Test results as given in patent publication US20170304306A1, “SELECTIVE NaV1.7 INHIBITORS FOR THE TREATMENT OF DIABETES” (CHROMOCELL CORPORATION, priority 2014, published 2017).
Values belong to the compound of their own block, whether it stands above or below them.

Assays:
hNaV1.7 = target: T1, hNaV1.7 (Homo sapiens, UniProt Q15858); assay: FDSS membrane potential in-vitro assay; format: cell-based; conditions: HEK293 cells expressing hNaV1.7 α, β1 and β2, veratridine and scorpion venom stimulation, read-out: NaV1.7 IC50
T1 construct: expressed in transfected cells; host or cells: HEK293

NaV1.7 = target: T2, NaV1.7 (Homo sapiens, UniProt Q15858); assay: Patchliner electrophysiological in-vitro assay, NaV1.7; format: cell-based; conditions: Patchliner patch clamp, HEK293 cells, holding at V1/2
T2 construct: expressed in transfected cells; host or cells: HEK293
Procedure: (§1) In vitro assays were performed in recombinant cell line that stably express a heterotrimeric protein of interest from an introduced nucleic acid encoding the alpha subunit (hNav1.7, SCN9A), the beta subunit (SCNB1) and the beta subunit (SCNB2). The cell line was engineered using Human Embryonic Kidney 293 cells (HEK293) as host background. Additional cell lines stably expressing recombinant human NaVs (e.g., NaV1.1, NaV1.2, NaV1.3, NaV1.4, NaV1.5, NaV1.6, NaV1.7 or NaV1.8) alpha subunit alone or in combination with various beta subunits in Chinese Hamster Ovary (CHO) or HEK293 cells as a host background can also be used in in vitro assays.
(§2) The recording of sodium current from stable HEK293 cell lines expressing NaV1.7 or NaV1.5 or CHO cell lines expressing NaV1.1, NaV1.2, NaV1.3, NaV1.4, NaV1.6 or NaV1.8 was done on a Patchliner® instrument, Nanion Technologies. […]
(§3) Voltage protocols were designed to establish: 1) peak current amplitude (Imax), 2) test potential (Vmax) and 3) half-inactivation potential (V1/2) for each of the eight individual cells. […] To estimate test compound affinity to the inactivated state of sodium channel (Ki), the holding potential for each cell was set automatically to the V1/2 calculated from a steady-state inactivation data. […] The dose-dependent inhibition was analyzed using Nanion's Data Analysis Package.

NaV1.5 = target: T3, NaV1.5 (Homo sapiens, UniProt Q14524); assay: Patchliner electrophysiological in-vitro assay, NaV1.5; format: cell-based; conditions: Patchliner patch clamp, HEK293 cells
T3 construct: expressed in transfected cells; host or cells: HEK293
Procedure: as §1
The recording of sodium current from stable HEK293 cell lines expressing NaV1.7 or NaV1.5 or CHO cell lines expressing NaV1.1, NaV1.2, NaV1.3, NaV1.4, NaV1.6 or NaV1.8 was done on a Patchliner® instrument, Nanion Technologies. The Patchliner® is a fully automated bench-top patch clamp platform and can record simultaneously from up to eight single cells with GΩ seals.
For patch-clamp experiments, cells were grown under standard culturing conditions in Dulbecco's Modified Eagles medium supplemented with 10% fetal bovine serum, glutamine and HEPES. Cells were harvested and kept in suspension for up to 4 hours with no significant change in quality or ability to patch. Whole cell patch clamp recordings were conducted according to Nanion's standard procedure for the Patchliner®. Experiments were conducted at room temperature.
Voltage protocols were designed to establish: 1) peak current amplitude (Imax), 2) test potential (Vmax) and 3) half-inactivation potential (V1/2) for each of the eight individual cells. To determine V1/2, a standard steady-state inactivation protocol was executed using a series of fifteen 500 ms depolarizing pre-pulses in 10 mV increments (starting at −130 mV) and immediately followed by a 10 ms test pulse to Vmax. To estimate test compound affinity to the inactivated state of sodium channel (Ki), the holding potential for each cell was set automatically to the V1/2 calculated from a steady-state inactivation data. The current was activated with the following voltage protocol: holding at V1/2 for 2-5 seconds, return to the −120 mV for 5-10 ms to relieve fast inactivation, stepping to test potential (Vmax) for 10-20 ms. This voltage protocol was repeated every 10 seconds to establish the baseline with 2-3 buffer additions followed by the test compound addition. The dose-dependent inhibition was analyzed using Nanion's Data Analysis Package.

NaV1.1 = target: T4, NaV1.1 (Homo sapiens, UniProt P35498); assay: Patchliner electrophysiological in-vitro assay, NaV1.1; format: cell-based; conditions: Patchliner patch clamp, CHO cells
T4 construct: expressed in transfected cells; host or cells: CHO
Procedure: as §1, §2, §3

NaV1.8 = target: T5, NaV1.8 (Homo sapiens, UniProt Q9Y5Y9); assay: Patchliner electrophysiological in-vitro assay, NaV1.8; format: cell-based; conditions: Patchliner patch clamp, CHO cells
T5 construct: expressed in transfected cells; host or cells: CHO
Procedure: as §1, §2, §3

NaV1.4 = target: T6, NaV1.4 (Homo sapiens, UniProt P35499); assay: Patchliner electrophysiological in-vitro assay, NaV1.4; format: cell-based; conditions: Patchliner patch clamp, CHO cells
T6 construct: expressed in transfected cells; host or cells: CHO
Procedure: as §1, §2, §3

NaV1.3 [1] = target: T7, NaV1.3 (Homo sapiens, UniProt Q9NY46); assay: Patchliner electrophysiological in-vitro assay, NaV1.3; format: cell-based; set-up: expressed in transfected cells; host or cells: CHO; conditions: Patchliner patch clamp, CHO cells; read-out: NaV 1.3 IC50
Procedure: as §1, §2, §3

[2] = system: streptozotocin-induced diabetic rats; assay: Anti-diabetic effect in rat streptozotocin-induced model for diabetes; format: in vivo, Sprague-Dawley rats; conditions: STZ diabetic rats
Procedure: 250-350 g male Sprague-Dawley rats from appropriate animal resources were used. Type I diabetes was induced by a single injection, (intraperitoneally, intravenously or intramuscularly) of 50-100 mg/kg of streptozotocin (STZ, Sigma Chemicals, St. Louis, Mo. or VWR) freshly dissolved in sodium citrate (0.01 M, pH 4.5). Sham animals were given either saline or same vehicle injection. Following a wait time of about two days, inducement of diabetes was confirmed in STZ-injected rats by measuring the plasma glucose concentrations in blood samples from the tail vein after a fast of 6 hours. The glucose level was assayed using a mini glucose monitor (kit for AlphaTRAK 2 meter, available from Abbott Laboratories). Screening for hyperglycemia in STZ-injected animals was done, with only animals with a final blood glucose level ≧300 mg/dl being selected for the study. Glucose levels in the sham animals remained normal. Other parameters (water intake, food intake, and bodyweight) were monitored before the treatment with a test compound and after the cessation of the treatment.
The baseline glucose levels, daily food and water intake and behavioral tests (von Frey, paw pressure and plantar tests) were measured for each animal once weekly for 28 weeks, and once every 2-4 weeks for an additional 28-30 weeks. At a selected week (started from week 6) for a compound test, diabetic rats were divided into two test groups: a vehicle control group and a test compound treated group (n=10 each group). A sham group (saline only without STZ i.p. injection, n=10) was added as a normal, non-diabetic control group. To minimize animal stress associated with repeated daily handling, the compound treated diabetic group of animals received the test compound (compound 49) at a daily dose of 60 mg/kg in their drinking water containing 2% PEG600 and 1% glycofurol (the test compound concentration in the drinking water was based on the individual animal's average daily water consumption as determined the pre-dosing period, which averaged 0.1-0.11 mg/ml). The vehicle control group received drinking water containing 2% PEG600 and 1% glycofurol without the test compound. The treatment continued for 9 days. On day 10 drinking water with test compound or vehicle (2% PEG600 and 1% glycofurol) was replaced with plain drinking water in all groups. The monitoring of glucose levels, food and water intake as well as behavior tests continued for additional 28-30 weeks.

NaV1.3 [3] = target: T7, NaV1.3; assay: Assay similar to Patchliner assay using CHO or HEK293 cell lines expressing NaV1.3; format: cell-based; set-up: expressed in transfected cells; host or cells: CHO or HEK293
[4] = 60 mg/kg/day in drinking water for 9 days, after treatment stopped, continues through week 52

T3 sequence (Q14524 whole entry): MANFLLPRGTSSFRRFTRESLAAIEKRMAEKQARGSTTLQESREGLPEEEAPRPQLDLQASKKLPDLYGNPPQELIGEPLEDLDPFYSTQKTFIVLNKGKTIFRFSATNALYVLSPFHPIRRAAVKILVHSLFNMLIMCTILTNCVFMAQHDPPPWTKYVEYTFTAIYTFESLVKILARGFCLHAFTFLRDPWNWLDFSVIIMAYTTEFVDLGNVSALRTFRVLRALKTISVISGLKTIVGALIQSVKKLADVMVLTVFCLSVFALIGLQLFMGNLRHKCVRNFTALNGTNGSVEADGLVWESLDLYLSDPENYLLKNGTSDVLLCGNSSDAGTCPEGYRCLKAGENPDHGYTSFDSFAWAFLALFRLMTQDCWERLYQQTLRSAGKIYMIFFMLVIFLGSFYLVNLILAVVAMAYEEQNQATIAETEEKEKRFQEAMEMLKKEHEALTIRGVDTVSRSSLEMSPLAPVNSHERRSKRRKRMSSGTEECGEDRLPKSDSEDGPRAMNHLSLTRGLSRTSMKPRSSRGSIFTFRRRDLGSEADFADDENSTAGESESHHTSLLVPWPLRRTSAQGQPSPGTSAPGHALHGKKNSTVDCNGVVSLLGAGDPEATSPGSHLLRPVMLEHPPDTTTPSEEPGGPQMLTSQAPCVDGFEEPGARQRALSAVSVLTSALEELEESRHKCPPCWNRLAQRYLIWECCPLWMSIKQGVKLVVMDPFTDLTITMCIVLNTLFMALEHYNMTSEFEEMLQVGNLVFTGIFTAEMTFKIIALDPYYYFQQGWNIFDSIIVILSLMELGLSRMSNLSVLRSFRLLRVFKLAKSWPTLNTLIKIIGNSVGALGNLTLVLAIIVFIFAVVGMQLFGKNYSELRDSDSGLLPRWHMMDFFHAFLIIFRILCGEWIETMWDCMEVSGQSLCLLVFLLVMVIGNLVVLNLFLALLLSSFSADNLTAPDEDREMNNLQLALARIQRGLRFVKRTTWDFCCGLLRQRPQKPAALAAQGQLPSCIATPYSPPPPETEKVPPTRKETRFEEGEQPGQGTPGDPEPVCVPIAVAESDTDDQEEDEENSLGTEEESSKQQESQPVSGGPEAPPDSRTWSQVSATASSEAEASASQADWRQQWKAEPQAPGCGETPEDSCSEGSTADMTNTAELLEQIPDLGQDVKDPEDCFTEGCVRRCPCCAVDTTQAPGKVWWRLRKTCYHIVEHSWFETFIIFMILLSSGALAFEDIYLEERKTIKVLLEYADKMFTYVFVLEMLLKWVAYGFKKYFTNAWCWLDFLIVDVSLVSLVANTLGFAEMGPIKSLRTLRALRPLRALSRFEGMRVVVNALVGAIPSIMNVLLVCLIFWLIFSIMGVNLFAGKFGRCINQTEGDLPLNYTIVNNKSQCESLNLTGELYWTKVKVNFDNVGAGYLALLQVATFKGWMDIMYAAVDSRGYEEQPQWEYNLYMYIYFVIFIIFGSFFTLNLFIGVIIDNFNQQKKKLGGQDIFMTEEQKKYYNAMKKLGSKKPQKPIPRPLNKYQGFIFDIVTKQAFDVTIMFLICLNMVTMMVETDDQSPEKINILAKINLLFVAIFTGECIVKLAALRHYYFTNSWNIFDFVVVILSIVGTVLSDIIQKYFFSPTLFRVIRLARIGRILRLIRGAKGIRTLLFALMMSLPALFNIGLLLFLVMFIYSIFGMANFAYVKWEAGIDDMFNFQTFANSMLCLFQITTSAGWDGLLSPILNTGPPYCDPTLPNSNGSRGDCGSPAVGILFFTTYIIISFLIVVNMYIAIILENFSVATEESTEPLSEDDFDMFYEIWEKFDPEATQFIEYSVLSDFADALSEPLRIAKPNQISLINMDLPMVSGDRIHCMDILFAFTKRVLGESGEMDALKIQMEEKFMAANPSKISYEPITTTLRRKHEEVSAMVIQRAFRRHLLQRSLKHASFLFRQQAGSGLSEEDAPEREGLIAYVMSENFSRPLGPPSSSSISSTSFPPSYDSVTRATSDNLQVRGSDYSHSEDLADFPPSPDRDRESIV
T6 sequence (P35499 whole entry): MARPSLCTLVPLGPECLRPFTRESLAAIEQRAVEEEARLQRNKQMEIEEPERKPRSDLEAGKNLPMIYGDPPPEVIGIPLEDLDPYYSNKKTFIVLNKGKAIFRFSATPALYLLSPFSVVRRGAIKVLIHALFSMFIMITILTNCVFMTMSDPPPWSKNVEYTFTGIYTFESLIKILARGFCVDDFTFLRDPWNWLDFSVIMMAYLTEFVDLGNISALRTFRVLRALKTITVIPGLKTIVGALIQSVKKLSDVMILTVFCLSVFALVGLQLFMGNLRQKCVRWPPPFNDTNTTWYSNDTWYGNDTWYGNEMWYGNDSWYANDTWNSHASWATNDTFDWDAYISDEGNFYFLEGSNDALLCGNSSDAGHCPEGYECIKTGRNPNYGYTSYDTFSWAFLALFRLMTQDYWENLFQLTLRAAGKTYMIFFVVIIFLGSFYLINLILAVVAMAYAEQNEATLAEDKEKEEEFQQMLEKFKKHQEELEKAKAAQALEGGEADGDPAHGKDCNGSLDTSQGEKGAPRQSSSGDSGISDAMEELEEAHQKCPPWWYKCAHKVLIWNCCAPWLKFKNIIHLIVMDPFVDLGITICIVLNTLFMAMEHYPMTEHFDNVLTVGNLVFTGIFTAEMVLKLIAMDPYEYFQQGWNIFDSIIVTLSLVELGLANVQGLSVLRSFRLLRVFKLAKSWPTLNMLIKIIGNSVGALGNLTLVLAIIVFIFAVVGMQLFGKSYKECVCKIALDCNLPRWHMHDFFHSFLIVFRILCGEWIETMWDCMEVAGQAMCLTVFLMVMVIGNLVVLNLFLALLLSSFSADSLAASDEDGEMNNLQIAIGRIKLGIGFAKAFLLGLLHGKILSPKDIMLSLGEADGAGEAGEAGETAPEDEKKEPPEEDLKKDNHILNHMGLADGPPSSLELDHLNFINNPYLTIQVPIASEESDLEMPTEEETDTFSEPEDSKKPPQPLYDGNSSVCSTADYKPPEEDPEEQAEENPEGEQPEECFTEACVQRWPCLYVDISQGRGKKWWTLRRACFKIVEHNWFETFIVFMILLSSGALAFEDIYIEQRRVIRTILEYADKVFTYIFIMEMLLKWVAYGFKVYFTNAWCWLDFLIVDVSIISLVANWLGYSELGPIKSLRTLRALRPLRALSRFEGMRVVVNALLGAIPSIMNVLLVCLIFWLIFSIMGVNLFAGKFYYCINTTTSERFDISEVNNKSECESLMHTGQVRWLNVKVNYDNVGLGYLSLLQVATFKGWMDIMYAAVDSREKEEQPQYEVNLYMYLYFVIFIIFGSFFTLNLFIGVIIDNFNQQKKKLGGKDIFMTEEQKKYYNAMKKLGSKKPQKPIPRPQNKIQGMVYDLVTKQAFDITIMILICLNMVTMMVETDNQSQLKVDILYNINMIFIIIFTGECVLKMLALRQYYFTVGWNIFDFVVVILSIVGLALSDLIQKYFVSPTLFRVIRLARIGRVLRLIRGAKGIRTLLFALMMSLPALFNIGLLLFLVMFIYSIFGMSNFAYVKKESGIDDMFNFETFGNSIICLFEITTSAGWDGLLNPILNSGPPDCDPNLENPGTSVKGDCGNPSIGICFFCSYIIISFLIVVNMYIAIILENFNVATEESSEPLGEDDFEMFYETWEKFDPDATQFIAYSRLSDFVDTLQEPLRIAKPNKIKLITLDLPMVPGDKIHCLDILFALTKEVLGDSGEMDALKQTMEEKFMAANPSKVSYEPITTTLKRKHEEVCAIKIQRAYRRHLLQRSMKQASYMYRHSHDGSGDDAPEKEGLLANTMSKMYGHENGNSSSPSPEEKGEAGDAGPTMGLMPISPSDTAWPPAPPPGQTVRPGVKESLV

IC50 (NaV1.7): < 0.1 µM
Structure (SMILES): C#CCN(CCCc1cc(Cl)ccc1Oc1cc(F)c(S(=O)(=O)Nc2nccs2)cc1Cl)CC(=O)O [Compound 54, 2-((3-(5-chloro-2-(2-chloro-5-fluoro-4-(N-(thiazol-2-yl)sulfamoyl)phenoxy)phenyl)propyl)(prop-2-yn-1-yl)amino)acetic acid]
IC50 (hNaV1.7): < 0.1 µM | IC50 (NaV1.5): > 10 µM

Structure (SMILES): C#CCN(CCCc1cc(Cl)ccc1Oc1cc(F)c(S(=O)(=O)Nc2cscn2)cc1Cl)CC(=O)O [Compound 61, 2-((3-(5-chloro-2-(2-chloro-5-fluoro-4-(N-(thiazol-4-yl)sulfamoyl)phenoxy)phenyl)propyl)(prop-2-yn-1-yl)amino)acetic acid]
IC50 (NaV1.5): > 10 µM

Structure (SMILES): O=C(O)CCNCCCc1cc(Cl)ccc1Oc1cc(F)c(S(=O)(=O)Nc2nccs2)cc1F [Compound 43, 3-((3-(5-chloro-2-(2,5-difluoro-4-(N-(thiazol-2-yl)sulfamoyl)phenoxy)phenyl)propyl)amino)propanoic acid]
IC50 (NaV1.5): > 10 µM

Structure (SMILES): CN(CCCc1cc(Cl)ccc1Oc1cc(F)c(S(=O)(=O)Nc2cscn2)cc1Cl)CC(=O)O [Compound 47, 2-((3-(5-chloro-2-(2-chloro-5-fluoro-4-(N-(thiazol-4-yl)sulfamoyl)phenoxy)phenyl)propyl)(methyl)amino)acetic acid]
IC50 (NaV1.5): > 10 µM

Structure (SMILES): CS(=O)(=O)CCNCCCc1cc(Cl)ccc1Oc1cc(F)c(S(=O)(=O)Nc2nccs2)cc1Cl [Compound 59, 5-chloro-4-(4-chloro-2-(3-((2-(methylsulfonyl)ethyl)amino)propyl)phenoxy)-2-fluoro-N-(thiazol-2-yl)benzenesulfonamide]
IC50 (NaV1.5): > 10 µM

Structure (SMILES): C#CCN(CCCc1cc(Cl)ccc1Oc1cc(F)c(S(=O)(=O)Nc2nccs2)cc1Cl)CCC(=O)O [Compound 66, 3-((3-(5-chloro-2-(2-chloro-5-fluoro-4-(N-(thiazol-2-yl)sulfamoyl)phenoxy)phenyl)propyl)(prop-2-yn-1-yl)amino)propanoic acid]
IC50 (NaV1.5): > 10 µM

Structure (SMILES): CCCN(CCCc1cc(Cl)ccc1Oc1cc(F)c(S(=O)(=O)Nc2nccs2)cc1Cl)CC(=O)O [Compound 65, 2-((3-(5-chloro-2-(2-chloro-5-fluoro-4-(N-(thiazol-2-yl)sulfamoyl)phenoxy)phenyl)propyl)(propyl)amino)acetic acid]
IC50 (NaV1.5): > 10 µM

IC50 (NaV1.1): > 10 µM | IC50 (NaV1.8): > 10 µM | IC50 (NaV1.4): > 3 µM | IC50 (NaV1.3 [1]): > 10 µM
Structure (SMILES): O=C(O)CCNC(=O)c1cc(-c2cc(Cl)ccc2Oc2cc(F)c(S(=O)(=O)Nc3ncns3)cc2Cl)ccn1 [Compound 1, 3-(4-(2-(4-(N-(1,2,4-thiadiazol-5-yl)sulfamoyl)-2-chloro-5-fluorophenoxy)-5-chlorophenyl)picolinamido)propanoic acid]

Structure (SMILES): NC(=O)CNCCCc1cc(Cl)ccc1Oc1cc(F)c(S(=O)(=O)Nc2nccs2)cc1Cl [Compound 63, 2-((3-(5-chloro-2-(2-chloro-5-fluoro-4-(N-(thiazol-2-yl)sulfamoyl)phenoxy)phenyl)propyl)amino)acetamide]
IC50 (NaV1.5): > 10 µM

Structure (SMILES): C=CCN(CCCc1cc(Cl)ccc1Oc1cc(F)c(S(=O)(=O)Nc2nccs2)cc1Cl)CC(=O)O [Compound 62, 2-(allyl(3-(5-chloro-2-(2-chloro-5-fluoro-4-(N-(thiazol-2-yl)sulfamoyl)phenoxy)phenyl)propyl)amino)acetic acid]
IC50 (NaV1.5): > 10 µM

IC50 (NaV1.1): > 10 µM | IC50 (NaV1.8): > 10 µM | IC50 (NaV1.4): > 3 µM | IC50 (NaV1.3 [3]): > 10 µM
Structure (SMILES): NC(=O)CNCCCc1cc(Cl)ccc1Oc1cc(F)c(S(=O)(=O)Nc2cscn2)cc1Cl [Compound 49, 2-((3-(5-chloro-2-(2-chloro-5-fluoro-4-(N-(thiazol-4-yl)sulfamoyl)phenoxy)phenyl)propyl)amino)acetamide]
general appearance and/or health ([2]; 60 mg/kg/day for 9 days, after treatment stopped on day 9): improvements in general appearance and/or health | food intake compared to the vehicle control group [2, 4]: significantly reduced | glucose level compared to the vehicle control group [2, 4]: significantly reduced | water intake compared to the vehicle control group [2, 4]: significantly reduced

Structure (SMILES): NC(=O)CNCCCc1ccccc1Oc1cc(F)c(S(=O)(=O)Nc2cscn2)cc1Cl [Compound 60, 2-((3-(2-(2-chloro-5-fluoro-4-(N-(thiazol-4-yl)sulfamoyl)phenoxy)phenyl)propyl)amino)acetamide]
IC50 (NaV1.5): > 10 µM
